Assay results published in US5767297A, “Taxoid derivative and method of producing thereof” (Ensuiko Sugar Refining Co., Ltd., priority 1997, dated 1998).
In brackets after ≈: the same amount, converted by molar mass.

Experiments:
[1] = solubility in water (stirred 18 hours, filtrate analyzed by HPLC)
Description: (§1) After stirring, supernatant was filtered by a membrane filter (0.45,μm) and a filtate was analyzed by HPLC.
(§2) Colum: Taxil 5μ (4.6×250 mm), made by MetaChem
Solvent: MeOH/H2 O (80/20)
Detector: photodiode detector (230 nm)

[2] = stability in aqueous solutions; type: physicochemical
tubulin = experiment: microtubule depolymerization-inhibiting activity (absorbance at 350 nm after adding calcium chloride); type: biochemical; settings: relative to paclitaxel; 5 μM
Description: Next, each of the above-described samples is mixed with tubulin (a main constituting protein of microtubule) and allowed to react at 37° C. for 15 minutes. Absorbance at 350 nm of the reaction solution was measured at 2, 5, 10 and 15 minutes after initiation of the reaction. Also, after the reaction ended, calcium chloride was added and, 5 minutes after this adding, absorbance at 350 nm was again measured. From each measured value was determined relative activity of each sample in the case that polymerization-promoting activity and depolymerization-inhibiting activity were taken as 100, and the results are shown in Table 2.

[3] = water, 18 h
Description: as §1, §2
Solvent: MeOH/H2 O (80/20)
Detector: photodiode detector (230 nm)

[4] = literature, I. Ringer et al.; cited from earlier work

Compound | solubility at 18 h [1] [µg/mL] | stability in aqueous solutions [2] | also measured
CC(=O)O[C@H]1C(=O)[C@]2(C)[C@@H](OC(=O)COC3O[C@H](CO)[C@@H](O)[C@H](O)[C@H]3O)C[C@H]3OC[C@@]3(OC(C)=O)[C@H]2[C@H](OC(=O)c2ccccc2)[C@]2(O)C[C@H](OC(=O)[C@H](OC(=O)COC3O[C@H](CO)[C@@H](O)[C@H](O)[C@H]3O)[C@@H](NC(=O)c3ccccc3)c3ccccc3)C(C)=C1C2(C)C (some centres unmarked) [2',7-S-paclitaxel, Diglucosyloxyacetyl-2',7-paclitaxel] | 48.4 (≈ 37.4 µM) | decomposed to paclitaxel in aqueous solutions and unstable in aqueous solutions | –
CC(=O)O[C@H]1C(=O)[C@@]2(C)[C@H]([C@H](OC(=O)c3ccccc3)[C@]3(O)C[C@H](OC(=O)[C@H](OC(=O)COC4O[C@H](CO)[C@@H](O)[C@H](O)[C@H]4O)[C@@H](NC(=O)c4ccccc4)c4ccccc4)C(C)=C1C3(C)C)[C@]1(OC(C)=O)CO[C@@H]1C[C@@H]2O (some centres unmarked) [2'-S-paclitaxel, Glucosyloxyacetyl-2'-paclitaxel] | 30.6 (≈ 28.5 µM) | decomposed to paclitaxel in aqueous solutions and unstable in aqueous solutions | –
CC(=O)O[C@H]1C(=O)[C@]2(C)[C@@H](OC(=O)COC3O[C@H](CO)[C@@H](O)[C@H](O)[C@H]3O)C[C@H]3OC[C@@]3(OC(C)=O)[C@H]2[C@H](OC(=O)c2ccccc2)[C@]2(O)C[C@H](OC(=O)[C@H](O)[C@@H](NC(=O)c3ccccc3)c3ccccc3)C(C)=C1C2(C)C (some centres unmarked) [7-S-paclitaxel, Glucosyloxyacetyl-7-paclitaxel] | 14.7 (≈ 13.7 µM) | – | depolymerization-inhibiting activity compared with paclitaxel (in words) (tubulin): more than twice as potent as that of paclitaxel
CC(=O)O[C@H]1C(=O)[C@@]2(C)[C@H]([C@H](OC(=O)c3ccccc3)[C@]3(O)C[C@H](OC(=O)[C@H](O)[C@@H](NC(=O)c4ccccc4)c4ccccc4)C(C)=C1C3(C)C)[C@]1(OC(C)=O)CO[C@@H]1C[C@@H]2O [Paclitaxel, paclitaxel] | – | – | Solubility [3]: 0.4 µg/mL (≈ 0.468 µM)
CC(=O)O[C@@]12CO[C@@H]1C[C@H](O)[C@@]1(C)C(=O)[C@H](O)C3=C(C)[C@@H](OC(=O)[C@H](O)[C@@H](NC(=O)OC(C)(C)C)c4ccccc4)C[C@@](O)([C@@H](OC(=O)c4ccccc4)[C@H]21)C3(C)C [docetaxel] | – | – | solubility in water relative to paclitaxel [4]: 1.3 times
